Measured values published in patent US11236055B2 (Venenum Biodesign, LLC, priority 2016, dated 2022).

Tests used:
Mouse STC-1 cells = test: STC-1 GLP-1 assay; assay type: cell-based; conditions: GLP-1 secretion, 2 h, coded A-C, read-out: Mouse STC-1 HTRF GLP-1 Activity (EC50)
Method: We evaluated Compounds of the present invention for their ability to induce GLP-1 production in mouse intestinal neuroendocrine tumor cells. Mouse STC-1 cells were cultured and maintained in high glucose DMEM (Sigma #5796) supplemented with 15% horse serum, 5% Fetal Bovine Serum (FBS), 1% penicillin/streptomycin, and 2 mM L-alanine L-glutamine (GlutaMax). Two days prior to analysis of GLP-1 secretion cells were harvested using Accutase (Sigma), spun down then resuspended in high glucose DMEM media containing 2 mM L-alanine L-glutamine (GlutaMax), 10% charcoal-dextran stripped FBS, and 50 μg/mL Gentamicin, at a density of 100,000 cells/mL. 100 μL of cell suspension was added to each well of a 96-well Poly-D-Lysine coated culture plate (Sigma; cat #2382493) and was incubated at 37° C. with 5% CO2.
Compounds were initially diluted in 100% DMSO (12-point serial dilution by half logs) in a 96-well plate and then were further diluted 1:500 in Hanks' Balanced Salt Solution (HBSS) containing protease inhibitor cocktail, DPP-IV inhibitor, and 0.1% fatty acid free bovine serum albumin. On the day of the experiment cells were washed once with HBSS. After wash, 100 μL of test compound was added to each well. The plate was incubated at 37° C. with 5% CO2 for 2 h. Supernatants were collected and GLP-1 secretion was measured using the Cisbio™ Active GLP-1 HTRF Assay Kit (Cisbio). Briefly, Anti-GLP-1-d2 conjugate and Anti-GLP-1 Terbium Cryptate conjugate stock solutions were prepared as per kit instructions. The two solutions were pre-mixed and 10 μL were transferred to a 384-well low volume plate (Greiner; cat #784075). 10 μL of collected supernatants were added to wells already containing the conjugate solution. The plate was covered and incubated at room temperature overnight. The plate was read on an Envision™ plate reader (Perkin Elmer).
In Table 34, EC50 values obtained from the STC-1 GLP-1 production assay for compounds of the present invention are summarized.

[1] = Pharmacokinetic profile in mice; assay type: in vivo; conditions: mouse; fasted male Hilltop mice, 10 mg/kg oral gavage, plasma, mean of three mice
Method: Pharmacokinetic Profile in Mice
In this series of studies, the pharmacokinetic profile characteristics of compounds of the present invention were evaluated. The plasma concentration levels of the compounds were monitored in the blood stream (i.e., plasma) after oral gavage using Cmax, and area under the curve (AUC).
8 week old male Hilltop mice were fasted overnight. Animals were randomized into groups (n=9) by body weight. Mice were dosed with 10 mg/kg compound (in 20% PEG400/80% 0.5% carboxymethylcellulose (medium viscosity)+0.25% Tween-80) at a volume of 10 mL/kg through oral gavage. Blood was collected via orbital bleeding at 0, 0.25, 0.5, 1, 2, and 4 h post-dose, with no one mouse having more than 3 blood draws. Blood was collected in EDTA coated tubes. Samples were stored at −20° C. until analysis.
Quantitation of compound levels in plasma was accomplished by LC-MS/MS analysis. Standard curve and quality control samples were prepared in male CD-1 mouse plasma containing EDTA K^2+ as an anticoagulant at final concentrations ranging from 500 to 0.1 ng/mL. The plasma samples, calibration curve standards, and quality control samples were prepared in an identical method in a 96-well deep plate (1 mL) with a quenching solution (1:1 mixed acetonitrile:methanol containing the internal standard Reserpine @ 400 ng/mL). Low volume samples were supplemented with CD-1 mouse plasma. The plate was mixed on multi-tube votex for 1 min and centrifuged at 4000 rpm for 30 min at 4° C. (Sorvall® Super T21) before LC-MS/MS analysis. LC conditions were developed and optimized based on each compound as needed. The outlet of the column was coupled to AB Sciex 4000 QTrap Mass Spectrometer (AB Sciex, Brugg Switzerland). Detection was carried out using multiple reaction monitoring mode with positive-ion detection focusing. The pharmacokinetic parameters were derived from the plasma-time data and calculated using the standard non-compartmental method with WinNonlin (Pharsight, Mountain View, Calif.) or PK Solver (Comp. Meth. Prog. Biomed. (2010), 99, 306-314).
Values reported are the mean plasma concentration of three mice.

With `CCc1cnccc1-c1cccc(C2CN(C(=O)CCC(=O)O)CCN2S(=O)(=O)c2cccc(Cl)c2C)c1` (racemic) [Compound 46, (+/−) 4-(4-((3-Chloro-2-methylphenyl)sulfonyl)-3-(3-(3-ethylpyridin-4-yl)phenyl)piperazin-1-yl)-4-oxobutanoic acid] the EC50 (Mouse STC-1 cells) was 100 to 999 nM and the Cmax [1] was 436 ng/mL.
Work on `CCc1cnccc1-c1cccc(C(C)(C)NS(=O)(=O)c2ccccc2C(F)(F)F)c1` [Compound 5, N-(2-(3-(3-ethylpyridin-4-yl)phenyl)propan-2-yl)-2-(trifluoromethyl)benzenesulfonamide] yielded an EC50 (Mouse STC-1 cells) of 100 to 999 nM and a Cmax [1] of 3.1 ng/mL.
`Cc1cnccc1-c1cccc(C(C)(C)NS(=O)(=O)c2cccc(C(F)(F)F)c2)c1` [Compound 5AA, N-(2-(3-(3-methylpyridin-4-yl)phenyl)propan-2-yl)-3-(trifluoromethyl)benzenesulfonamide] gave an EC50 (Mouse STC-1 cells) of 100 to 999 nM and a Cmax [1] of 128 ng/mL.
In the case of `Cc1cnccc1-c1cccc(C(C)(C)N(CCCC(=O)O)S(=O)(=O)c2ccccc2C(F)(F)F)c1` [Compound 14, 4-(N-(2-(3-(3-methylpyridin-4-yl)phenyl)propan-2-yl)-2-(trifluoromethyl)phenylsulfonamido)butanoic acid], the EC50 (Mouse STC-1 cells) is reported as 100 to 999 nM and the Cmax [1] is reported as 1080 ng/mL.
Compound `Cc1cnccc1-c1cccc(C(C)(C)N(CCCC(=O)NCS(=O)(=O)O)S(=O)(=O)c2ccccc2C(F)(F)F)c1` [Compound 20AB] has an EC50 (Mouse STC-1 cells) of 100 to 999 nM and a Cmax [1] of 1.5 ng/mL.
Work on `Cc1cnccc1-c1cccc([C@H](C)N(CCCCC(=O)NCCS(=O)(=O)O)S(=O)(=O)c2cccc(Cl)c2C)c1` [Compound 20AH, (S)-2-(5-(3-chloro-2-methyl-N-(1-(3-(3-methylpyridin-4-yl)phenyl)ethyl)phenylsulfonamido)pentanamido)ethanesulfonic acid] yielded an EC50 (Mouse STC-1 cells) of 1000 to 30000 nM and a Cmax [1] of 0.9 ng/mL.
For `CCc1cnccc1-c1cccc([C@H](C)N(CCCC(=O)NC[C@@H](O)[C@H](O)[C@@H](O)[C@@H](O)CO)S(=O)(=O)c2cccc(Cl)c2C)c1` [Compound 20AN, 4-(3-chloro-N-((S)-1-(3-(3-ethylpyridin-4-yl)phenyl)ethyl)-2-methylphenylsulfonamido)-N-((2R,3S,4S,5S)-2,3,4,5,6-pentahydroxyhexyl)butanamide], the EC50 (Mouse STC-1 cells) was 100 to 999 nM and the Cmax [1] was 1.7 ng/mL.
`CCc1cnccc1-c1cccc([C@H](C)N(CCCC(=O)NCCS(=O)(=O)O)S(=O)(=O)c2ccccc2C)c1` [Compound 20AR, (S)-2-(4-(N-(1-(3-(3-ethylpyridin-4-yl)phenyl)ethyl)-2-methylphenyl-sulfonamido)butanamido)ethane sulfonic acid] showed an EC50 (Mouse STC-1 cells) of 100 to 999 nM and a Cmax [1] of 3.2 ng/mL.
In the case of `Cc1cnccc1-c1cccc([C@H](C)N(CCCCC(=O)NCCS(=O)(=O)NCCC(=O)O)S(=O)(=O)c2ccccc2C(F)(F)F)c1` [Compound 20BM], the EC50 (Mouse STC-1 cells) is reported as 1000 to 30000 nM and the Cmax [1] is reported as 0.6 ng/mL.
`CCc1cnccc1-c1cccc([C@H](C)N(CCCC(=O)NCCS(=O)(=O)NCC(=O)O)S(=O)(=O)c2ccccc2C)c1` [Compound 20BU, (S)-2-(4-(2-methyl-N-(1-(3-(3-ethylpyridin-4-yl)phenyl)ethyl)phenylsulfonamido)butanamidoethylsulfonamido)acetate] gave an EC50 (Mouse STC-1 cells) of 100 to 999 nM and a Cmax [1] of 1.1 ng/mL.
Work on `Cc1cnccc1-c1cccc([C@H](C)N(CCCC(=O)NCCS(=O)(=O)NCCC(=O)O)S(=O)(=O)c2cccc(Cl)c2C)c1` [Compound 21AL] yielded an EC50 (Mouse STC-1 cells) of 100 to 999 nM and a Cmax [1] of 7.6 ng/mL.
`Cc1cnccc1-c1cccc([C@H](C)N(CCCC(=O)NCCS(=O)(=O)NCC(=O)O)S(=O)(=O)c2cccc(Cl)c2C)c1` [Compound 21AN, (S) 2-(3-(4-(3-chloro-2-methyl-N-(1-(3-(3-methylpyridin-4-yl)phenyl)ethyl)phenylsulfonamido)butanamido)ethylsulfonamido)acetic acid] gave an EC50 (Mouse STC-1 cells) of 100 to 999 nM and a Cmax [1] of 1.9 ng/mL.
`Cc1cnccc1-c1cccc([C@H](C)N(CCCC(=O)NCCNS(=O)(=O)CC(=O)O)S(=O)(=O)c2cccc(Cl)c2C)c1` [Compound 26AA] showed an EC50 (Mouse STC-1 cells) of 100 to 999 nM and a Cmax [1] of 1.4 ng/mL.
`Cc1cnccc1-c1cccc([C@H](C)N(CCCC(=O)NCCNS(=O)(=O)CCC(=O)O)S(=O)(=O)c2cccc(Cl)c2C)c1` [Compound 26AB] showed an EC50 (Mouse STC-1 cells) of 100 to 999 nM and a Cmax [1] of 2.6 ng/mL.
`Cc1cnccc1-c1cccc([C@H](C)N(CCCCNC(=O)NCCS(=O)(=O)NCC(=O)O)S(=O)(=O)c2ccccc2C(F)(F)F)c1` [Compound 28AA, (S)-2-(3-(4-(N-(1-(3-(3-methylpyridin-4-yl)phenyl)ethyl)-2-(trifluoromethyl)phenylsulfonamido)butyl)ureido)ethanesulfonamido acetic acid] showed an EC50 (Mouse STC-1 cells) of 100 to 999 nM and a Cmax [1] of 0.7 ng/mL.
Work on `Cc1cnccc1-c1cccc([C@H](C)N(CCCCNC(=O)NCS(=O)(=O)O)S(=O)(=O)c2ccccc2C(F)(F)F)c1` [Compound 28AC, (S)-(3-(4-(N-(1-(3-(3-methylpyridin-4-yl)phenyl)ethyl)-2-(trifluoromethyl)phenylsulfonamido)butyl)ureido)methanesulfonic acid] yielded an EC50 (Mouse STC-1 cells) of 1000 to 30000 nM and a Cmax [1] of 0.8 ng/mL.
For `CCc1cnccc1-c1cccc([C@H](C)N(CCCCNC(=O)NCS(=O)(=O)O)S(=O)(=O)c2ccccc2C(F)(F)F)c1` [Compound 28AH, (S)-(3-(4-(N-(1-(3-(3-ethylpyridin-4-yl)phenyl)ethyl)-2-(trifluoromethyl)phenylsulfonamido)butyl)ureido)methanesulfonic acid], the EC50 (Mouse STC-1 cells) was 100 to 999 nM and the Cmax [1] was 4.6 ng/mL.
`Cc1cnccc1-c1cccc(C(C)(C)N(CCCNC(=O)NCS(=O)(=O)O)S(=O)(=O)c2cccc(Cl)c2C)c1` [Compound 29, (3-(3-((3-Chloro-2-methyl-N-(2-(3-(3-methylpyridin-4-yl)phenyl)propan-2-yl)phenyl)sulfonamide)propyl)ureido) methanesulfonic acid] gave an EC50 (Mouse STC-1 cells) of 100 to 999 nM and a Cmax [1] of 2.5 ng/mL.
Compound `Cc1cnccc1-c1cccc(C(C)(C)N(CCCNC(=O)NCCS(=O)(=O)O)S(=O)(=O)c2cccc(Cl)c2C)c1` [Compound 29AA, 2-(3-(3-((3-Chloro-2-methyl-N-(2-(3-(3-methylpyridin-4-yl)phenyl)propan-2-yl)phenyl)sulfonamide)propyl)ureido)ethane-1-sulfonic acid] has an EC50 (Mouse STC-1 cells) of 100 to 999 nM and a Cmax [1] of 1.5 ng/mL.
In the case of `Cc1cnccc1-c1cccc([C@H](C)N(CCCCNC(=O)CS(=O)(=O)O)S(=O)(=O)c2ccccc2C(F)(F)F)c1` [Compound 31AA, (S)-2-((4-(N-(1-(3-(3-methylpyridin-4-yl)phenyl)ethyl)-2-(trifluoromethyl)phenylsulfonamido)butyl)amino)-2-oxoethanesulfonic acid], the EC50 (Mouse STC-1 cells) is reported as 100 to 999 nM and the Cmax [1] is reported as 4.4 ng/mL.
With `Cc1cnccc1-c1cccc([C@H](C)N(CCCCNC(=O)[C@@H](N)CS(=O)(=O)O)S(=O)(=O)c2ccccc2C(F)(F)F)c1` [Compound 31AC, (R)-2-amino-3-((4-(N-((S)-1-(3-(3-methylpyridin-4-yl)phenyl)ethyl)-2-(trifluoromethyl)phenylsulfonamido)butyl)amino)-3-oxopropane-1-sulfonic acid] the EC50 (Mouse STC-1 cells) was 100 to 999 nM and the Cmax [1] was 1.8 ng/mL.
With `CCc1cnccc1-c1cccc([C@H](C)N(CCCC(=O)NCCNS(N)(=O)=O)S(=O)(=O)c2cccc(Cl)c2C)c1` [Compound 37AA, (S)-4-(3-chloro-N-(1-(3-(3-ethylpyridin-4-yl)phenyl)ethyl)-2-methylphenylsulfonamido)-N-(2-(sulfamoylamino)ethyl)butanamide] the EC50 (Mouse STC-1 cells) was 100 to 999 nM and the Cmax [1] was 39.4 ng/mL.
